In patent US10526294B2, “Pyrrolobenzodiazepines and conjugates thereof” (priority 2016, dated 2020):

Assays:
NCI-N87 cells = assay: Cell viability assay (CellTiter-Glo), NCI-N87; type: cell-based; conditions: Homo sapiens, HER2 expressing cells, 72 h
Procedure: (§1) Cell Viability Assay for Antibody-Polymer-Drug Conjugates.
(§2) PBD compounds and conjugates thereof were evaluated for their antiproliferation properties in tumor cell lines in vitro using CellTiter-Glo® (Promega Corp). Cells were plated in black walled 96-well plate and allowed to adhere overnight at 37° C. in a humidified atmosphere of 5% CO2. BT474, SKBR3, NCI-N87 cells (HER2 expressing cells), JIMT1 cells (HER2 medium expression level cells) and MCF7 cells (HER2 low expressing levels cells) and were plated at a density of 5,000 cells per well. The next day the medium was replaced with 50 μL fresh medium and 50 μL of 2× stocks of PBD compounds or antibody-PBD conjugate were added to appropriate wells, mixed and incubated for 72 h. CellTiter-Glo® reagent was added to the wells at room temperature and the luminescent signal was measured after 10 min using a SpectraMax M5 plate reader (Molecular Devices). Dose response curves were generated using SoftMax Pro software. IC50 values were determined from four-parameter curve fitting.

JIMT1 cells = assay: Cell viability assay (CellTiter-Glo), JIMT1; type: cell-based; conditions: Homo sapiens, JIMT-1, HER2 medium expression level cells, 72 h
Procedure: as §1, §2

MCF7 cells = assay: Cell viability assay (CellTiter-Glo), MCF7; type: cell-based; conditions: Homo sapiens, HER2 low expressing levels cells, 72 h
Procedure: as §1, §2

SKBR3 cells = assay: Cell viability assay (CellTiter-Glo), SKBR3; type: cell-based; conditions: Homo sapiens, SK-BR-3, HER2 expressing cells, 72 h
Procedure: as §1, §2

BT474 cells = assay: Cell viability assay (CellTiter-Glo), BT474; type: cell-based; conditions: Homo sapiens, BT-474, HER2 expressing cells, 72 h
Procedure: as §1, §2

[1] = Phase I clinical evaluation; cited from earlier work

SMILES	IC50 (NCI-N87 cells; PBD compounds (Table I)) [nM]	IC50 (JIMT1 cells; PBD compounds (Table I)) [nM]	IC50 (MCF7 cells; PBD compounds (Table I)) [nM]	IC50 (SKBR3 cells; PBD compounds (Table I)) [nM]	IC50 (BT474 cells; PBD compounds (Table I)) [nM]	IC50 (NCI-N87 cells; conjugates (Table II)) [nM]	IC50 (JIMT1 cells; conjugates (Table II)) [nM]	IC50 (MCF7 cells; conjugates (Table II)) [nM]	IC50 (SKBR3 cells; conjugates (Table II)) [nM]	IC50 (BT474 cells; conjugates (Table II)) [nM]	maximum tolerated dose [1] [μg/m^2]
COc1cc2c(cc1OCCCC(=O)Nc1cn(C)c(C(=O)Nc3ccc(-c4cc(C(=O)O)n(C)c4)cc3)n1)N=C[C@@H]1CCCN1C2=O [Compound 44, (S,Z)-4-(4-(4-(4-(7-methoxy-5-oxo-2,3,5,11a-tetrahydro-1H-benzo[e]pyrrolo[1,2-a][1,4]diazepin-8-yloxy)butanamido)-1-methyl-1H-imidazole-2-carboxamido)phenyl)-1-methyl-1H-pyrrole-2-carboxylic acid]	105	109	560	53	1000						
C=C1CC2C=Nc3cc(OCCCC(=O)Nc4cn(C)c(C(=O)Nc5ccc(-c6cc(C(=O)n7ccc8cc(N)ccc87)n(C)c6)cc5)n4)c(OC)cc3C(=O)N2C1 (stereo not drawn) [Compound 105, (Z)—N-(4-(5-(5-amino-1H-indole-1-carbonyl)-1-methyl-1H-pyrrol-3-yl)phenyl)-4-(4-(7-methoxy-2-methylene-5-oxo-2,3,5,11a-tetrahydro-1H-benzo[e]pyrrolo[1,2-a][1,4]diazepin-8-yloxy)butanamido)-1-methyl-1H-imidazole-2-carboxamide]						0.03	0.04	0.03	0.007	0.09	
C=C1C[C@H]2C=Nc3cc(OCCCC(=O)Nc4cn(C)c(C(=O)Nc5ccc(-c6nc7cc(OC)ccc7[nH]6)cc5)n4)c(OC)cc3C(=O)N2C1 [Compound 106, (S,Z)—N-(4-(5-methoxy-1H-benzo[d]imidazol-2-yl)phenyl)-4-(4-(7-methoxy-2-methylene-5-oxo-2,3,5,11a-tetrahydro-1H-benzo[e]pyrrolo[1,2-a][1,4]diazepin-8-yloxy)butanamido)-1-methyl-1H-imidazole-2-carboxamide]						0.21	0.17	0.84	0.13	0.73	
C=C1CC2C=Nc3cc(OCCCC(=O)Nc4cn(C)c(C(=O)Nc5ccc(-c6cc(C(=O)n7ccc8cc(OC)ccc87)n(C)c6)cc5)n4)c(OC)cc3C(=O)N2C1 (stereo not drawn) [Compound 107, (Z)—N-(4-(5-(5-methoxy-1H-indole-1-carbonyl)-1-methyl-1H-pyrrol-3-yl)phenyl)-4-(4-(7-methoxy-2-methylene-5-oxo-2,3,5,11a-tetrahydro-1H-benzo[e]pyrrolo[1,2-a][1,4]diazepin-8-yloxy)butanamido)-1-methyl-1H-imidazole-2-carboxamide]						0.03	0.03	0.07	0.02	0.16	
C=C1C[C@H]2C=Nc3cc(OCCCOc4cc5c(cc4OC)C(=O)N4CC(=C)C[C@H]4C=N5)c(OC)cc3C(=O)N2C1 [SJG-136]											45
